Test: Safety and tolerability: adverse events, dose-limiting toxicities, MTD, RP2D (Phase 1A/1B)
Type: in vivo
Procedure: This was an open-label, Phase 1, dose-escalation/dose-expansion study, conducted across six study centres in Australia. The dose-escalation phase evaluated twice-daily (BID) and once-daily (QD) dosing, and the dose-expansion phase evaluated the BID RP2D from the dose-escalation phase and food effects (Fig. 1). The food-effects cohort comprised two sequences: fast followed by fed (sequence 1) and fed followed by fast (sequence 2). […] The decision to proceed to the next dose cohort was determined by the Safety Monitoring Committee and followed a modified 3 + 3 escalation scheme. […] When ≥2 DLTs occurred in the first 23 days of a dose level, the next lower dose level was declared the MTD. Safety was monitored and DLTs were assessed in all dose cohorts. […] The food-effects cohort investigated the effects of food on the PK of pamiparib in patients with advanced solid tumours.
The QD dosing regimen was added as an amendment to the protocol with the purpose of exploring the feasibility of a more convenient regimen.
Safety and tolerability were assessed throughout the study by monitoring adverse events (AEs), serious AEs, clinical laboratory measurements and physical examinations. Adverse events were categorised according to their severity (National Cancer Institute Common Terminology Criteria for Adverse Events v4.03) and relationship to the study treatment.

C[C@]12CCCN1CC1=NNC(=O)c3cc(F)cc4[nH]c2c1c34 [pamiparib]
1 (33.3) n (%): Pleural effusion, AE of any grade (5.0 mg BID (n = 3)) | Treatment-emergent AE: Grade 3 or higher (5.0 mg BID (n = 3)) | Treatment-emergent AE: Leading to dose interruption (5.0 mg BID (n = 3)) | Treatment-emergent AE: Leading to dose modification (5.0 mg BID (n = 3)) | Abdominal pain, AE of any grade (10 mg BID (n = 3)) | Anaemia, AE of any grade (10 mg BID (n = 3)) | Constipation, AE of any grade (10 mg BID (n = 3)) | Cough, AE of any grade (10 mg BID (n = 3)) | Diarrhoea, AE of any grade (10 mg BID (n = 3)) | Dyspnoea, AE of any grade (10 mg BID (n = 3)) | Hypomagnesemia, AE of any grade (10 mg BID (n = 3)) | Nausea, AE of any grade (10 mg BID (n = 3)) | Pyrexia, AE of any grade (10 mg BID (n = 3)) | Treatment-emergent AE: Leading to dose interruption (10 mg BID (n = 3)) | Treatment-emergent AE: Leading to dose modification (10 mg BID (n = 3)) | Vomiting, AE of any grade (10 mg BID (n = 3))
3 (100.0) n (%): Treatment-emergent AE (5.0 mg BID (n = 3)) | Treatment-emergent AE (10 mg BID (n = 3))
2 (66.7) n (%): Treatment-emergent AE: Serious (5.0 mg BID (n = 3)) | Treatment-related AE (5.0 mg BID (n = 3)) | Ascites, AE of any grade (10 mg BID (n = 3)) | Treatment-emergent AE: Grade 3 or higher (10 mg BID (n = 3)) | Treatment-emergent AE: Serious (10 mg BID (n = 3)) | Abdominal pain, AE of any grade (20 mg BID (n = 3))
0 (0.0) n (%): Pyrexia, AE of any grade (5.0 mg BID (n = 3)) | Treatment-emergent AE: Leading to death (5.0 mg BID (n = 3)) | Treatment-emergent AE: Leading to dose reduction (5.0 mg BID (n = 3)) | Treatment-emergent AE: Leading to treatment discontinuation (5.0 mg BID (n = 3)) | Treatment-related AE: Grade 3 or higher (5.0 mg BID (n = 3)) | Treatment-related AE: Leading to death (5.0 mg BID (n = 3)) | Treatment-related AE: Leading to dose interruption (5.0 mg BID (n = 3)) | Treatment-related AE: Leading to dose modification (5.0 mg BID (n = 3)) | Treatment-related AE: Leading to dose reduction (5.0 mg BID (n = 3)) | Treatment-related AE: Leading to treatment discontinuation (5.0 mg BID (n = 3)) | Treatment-related AE: Serious (5.0 mg BID (n = 3)) | Upper respiratory tract infection, AE of any grade (5.0 mg BID (n = 3)) | Urinary tract infection, AE of any grade (5.0 mg BID (n = 3)) | Vomiting, AE of any grade (5.0 mg BID (n = 3)) | Back pain, AE of any grade (10 mg BID (n = 3)) | Decreased appetite, AE of any grade (10 mg BID (n = 3)) | Dose-limiting toxicity (10 mg BID (n = 3)) | Fatigue, AE of any grade (10 mg BID (n = 3)) | Headache, AE of any grade (10 mg BID (n = 3)) | Hypoalbuminemia, AE of any grade (10 mg BID (n = 3)) | Hypophosphatemia, AE of any grade (10 mg BID (n = 3)) | Increased AST, AE of any grade (10 mg BID (n = 3)) | Muscle spasms, AE of any grade (10 mg BID (n = 3)) | Neutropenia, AE of any grade (10 mg BID (n = 3)) | Non-cardiac chest pain, AE of any grade (10 mg BID (n = 3)) | Pain in extremity, AE of any grade (10 mg BID (n = 3)) | Peripheral sensory neuropathy, AE of any grade (10 mg BID (n = 3)) | Pleural effusion, AE of any grade (10 mg BID (n = 3)) | Treatment-emergent AE: Leading to death (10 mg BID (n = 3)) | Treatment-emergent AE: Leading to dose reduction (10 mg BID (n = 3)) | Treatment-emergent AE: Leading to treatment discontinuation (10 mg BID (n = 3)) | Treatment-related AE (10 mg BID (n = 3)) | Treatment-related AE: Grade 3 or higher (10 mg BID (n = 3)) | Treatment-related AE: Leading to death (10 mg BID (n = 3)) | Treatment-related AE: Leading to dose interruption (10 mg BID (n = 3)) | Treatment-related AE: Leading to dose modification (10 mg BID (n = 3)) | Treatment-related AE: Leading to dose reduction (10 mg BID (n = 3)) | Treatment-related AE: Leading to treatment discontinuation (10 mg BID (n = 3)) | Treatment-related AE: Serious (10 mg BID (n = 3)) | Upper respiratory tract infection, AE of any grade (10 mg BID (n = 3)) | Urinary tract infection, AE of any grade (10 mg BID (n = 3)) | Anaemia, AE of any grade (20 mg BID (n = 3))

From publication PMC8854719, “Phase 1A/1B dose-escalation and -expansion study to evaluate the safety, pharmacokinetics, food effects and antitumor activity of pamiparib in advanced solid tumours” (British Journal of Cancer, 2021)
